Test results reported in EP3964221A1, “ANTIVIRAL AGENTS” (priority 2020, dated 2022).
Read-outs that look alike come from different tables or passages of the source.

Columns and labels:
Herpes simplex = settings: added to the assays after infection; cited from earlier work
[1] = test system: Rhinovirus (RV, subtype 14); assay: Curative approach, plaque reduction assay; assay type: cell-based; settings: active control at concentrations between 5-50 µg mL^-1
[2] = test system: Influenza A virus (Flu A, H1N1); assay: Curative approach, plaque reduction assay; assay type: cell-based
[3] = test system: Respiratory Syncytial Virus (RSV, type long strain); assay: Curative approach, plaque reduction assay; assay type: cell-based; settings: active control at concentrations between 5-50 µg mL^-1
[4] = test system: Respiratory Syncytial Virus (RSV, type long strain); assay: Virucidal (preventive) approach, pretreatment of cell-free virus, plaque forming units; assay type: cell-based; settings: positive control at 0.3%; 2 and 24 h incubation
[5] = test system: Adenovirus C (AV, subtype 5); assay type: cell-based; settings: positive control at 0.3%
[6] = test system: Rhinovirus (RV, subtype 14); assay: Virucidal (preventive) approach, pretreatment of cell-free virus, plaque forming units; assay type: cell-based; settings: positive control at 0.3%; 2 and 24 h incubation
[7] = test system: Influenza A virus (Flu A, H1N1); assay: as above; assay type: cell-based; settings: positive control at 0.3%; 2 and 24 h incubation

## CC12CCC(CC1)C(C)(C)O2 [1,8-cineol]
Herpes simplex
  reduction of Herpes simplex induced plaques: 30-40%

## NC(=O)c1ncn([C@@H]2O[C@H](CO)[C@@H](O)[C@H]2O)n1 [Ribavirin, ribavirin]
[1]
  inhibited plaque formation: 70-96%
[2]; active control
  plaque formation (visual, Fig. 3): prevented plaque formation almost completely
[2]; active control at concentrations between 5-50 µg mL^-1
  inhibited plaque formation: 70-96%
[3]
  inhibited plaque formation: 70-96%

## CCCCCCCCCCCCOS(=O)(=O)[O-].[Na+] [SDS, Sodium dodecyl sulfate]
[4]
  lowered infectivity: 56-100%
[5]; 2 h incubation
  lowered infectivity: 52%
[5]; 24 h incubation
  lowered infectivity: 63%
[6]
  lowered infectivity: 56-100%
[7]
  lowered infectivity: 56-100%

## Nc1nc2c(ncn2COCCO)c(=O)[nH]1 [acyclovir]
Herpes simplex
  reduction of Herpes simplex induced plaques: 100%

## C=C(C)[C@H]1CC=C(C)CC1 [limonene]
Herpes simplex
  reduction of Herpes simplex induced plaques: 10-20%

## CC1=CCC2CC1C2(C)C (stereo not drawn) [α-pinene]
Herpes simplex
  reduction of Herpes simplex induced plaques: 30-40%

## C=C1CCC2CC1C2(C)C (stereo not drawn) [β-pinene]
Herpes simplex
  reduction of Herpes simplex induced plaques: 10-20%
